Reference: patent US10722484B2, “Methods of cancer treatment” (K-Gen, Inc., priority 2016, dated 2020)

Legend:
[1] = system: BxPC-3; assay: Proliferation assay (CellTiter Glo); assay type: cell-based; conditions: BxPC-3 (RAS WT); 96 hours
Method: (§1) The dose range for most compounds was 4.6 nM-30 μM. The dose ranges for some compounds were adjusted downward to 0.46 nM-3 μM or 0.08 nM-0.5 μM or 0.03 nM-0.2 μM. […] The results are shown in Tables 3-6 for pancreatic cancer, lung cancer, colon/gastric cancer, and leukemia.
(§2) Other cancer cell lines having wild-type K-RAS status and K-RAS mutation at G12 were also screened using the PKC activator compounds. […] K104 was tested in a range of 0.03 nM-0.2 μM. […] The dose ranges were adjusted downward to 0.46 nM-3 μM for K102 and 0.08 nM-0.5 μM for K103 for some cell lines. The results of the screening of cancer cells lines with wild-type K-RAS status and K-RAS mutations at the G12 positions are presented in Table 7.

[2] = system: Colo205; assay: Proliferation assay (CellTiter Glo); assay type: cell-based; conditions: Colo205 (RAS WT); 96 hours
Method: as §1, §2

[3] = system: H1915; assay: Proliferation assay (CellTiter Glo); assay type: cell-based; conditions: H1915 (RAS WT); 96 hours
Method: as §1, §2

[4] = system: H838; assay: Proliferation assay (CellTiter Glo); assay type: cell-based; conditions: H838 (RAS WT); 96 hours
Method: as §1, §2

[5] = system: HT29; assay: Proliferation assay (CellTiter Glo); assay type: cell-based; conditions: HT29 (RAS WT); 96 hours
Method: as §1, §2

[6] = system: RPMI8226; assay: Proliferation assay (CellTiter Glo); assay type: cell-based; conditions: RPM18226; 96 hours
Method: as §1, §2

[7] = system: SW900; assay: Proliferation assay (CellTiter Glo); assay type: cell-based; conditions: SW900 (K-RAS: G12V); 96 hours
Method: as §1, §2

[8] = system: A549 cells; assay: Soft agar colony formation assay; assay type: cell-based; conditions: for number of colonies formed in soft agar: 7-10 days, 9-point 3-fold dilution series
Method: To prepare a base agar layer (0.6%), melted 1.2% agar solution was mixed 1:1 (v/v) with 2×DMEM/20% FBS medium in a tube by inverting several times, and 50 μL of the mixture was immediately transferred to a well in a 96-well flat-bottom microplate. The plate was placed at 4° C. for 30 minutes to allow the base agar layer to solidify. Then, the cell agar layer (agar 0.4%) was prepared by transferring 75 μL of the cell and agar mixture containing 1:1:1 (v/v/v) of 1.2% agar solution, 2×DMEM/20% FBS and cell suspension (0.4-4×10E5/mL) to each well of the plates so that each well contained 1000-10000 cells per well. The plates were placed at 4° C. for 15 minutes and then 75 μL of media was added to each well. After incubating the plates overnight in a CO2 incubator, 50 μL of media with or without 5× final concentrations of compounds were added to each well. Each compound was tested in 9-point 3-fold dilution series. The plates were incubated for 7-10 days at 37° C. At the end of incubation period, 28 μL of Calcein AM solution (5 μM) was added to the center of each well. The plates were incubated at 37° C. for 45 minutes before scanning on Acumen (TTP Labtech). Each compound was tested in triplicates. Data was analyzed and compound EC50s were calculated using GraphPad Prism 5.

[9] = system: pancreatic, lung, colon and leukemia cancer cell lines; assay: Proliferation assay, summary over the panel of cancer cell lines; assay type: cell-based; conditions: comparison with prostratin
Method: PKC activator compounds were tested in a panel of K-RAS mutant pancreatic, lung, and colon cancer cell lines, as well as a number of leukemia cell lines having either mutant K-RAS or N-RAS.
as §1

[10] = system: Mino (Mantle cell lymphoma); assay: Combination viability/proliferation assays; conditions: Homo sapiens, MINO, read-out: inhibition on proliferation, alone
Method: Briefly, cells at density of 1,000-10,000 cells/well in 96-well plates or 200-1600 cells/well in 384-well plates were seeded and incubated at 37° C. for 24 hours before addition of compounds. A series of 9 different concentrations of compound stocks (500×) were prepared by 3-fold serial dilutions in DMSO. […] After 96 hours of incubation, 35 μL or 50 μL of CellTiter Glo reagent (Promega) was added to each well and luminescence was measured after 10 minutes using EnVision (PerkinElmer). Luminescence from cells treated with DMSO alone was set as Max and % of inhibition was calculated as follows: Inhibition %=(Max-Sample value)/Max*100. Data were analyzed using XLfit software (ID Business Solutions Ltd.) or GraphPad software and IC50, relative IC50, and % of top inhibition were calculated.
Various drugs or compounds (Table 10) were screened and assayed in 384-well plates as 9-point 3-fold dilution series alone and in combination with 2-3 doses of the specified PKC activator compounds (e.g., K101A, K101E, and K102). The top concentration for the tested PKC activator compound was set at roughly the IC50 when the same testing compound was used as a single agent assayed in the same cell line. The next dose was either 3-fold or 10-fold dilution from the top concentration.
The PKC activating agents (e.g., K101A, K101E, and K102) in combination with other chemotherapeutic agents, including standard chemotherapies and certain chemotherapeutic agents targeting certain cell signaling pathways, were also examined on cancer cells other than lung cancer cells.

[11] = system: A549 lung cancer cell line; assay: Combination viability/proliferation assays (384-well IC50 ratio, 96-well MacSynergy II); assay type: cell-based; conditions: PKC activator compounds (K101A, K101E, K102)

Compound | Top Inhibition % [1] [%] | Top Inhibition % [2] [%] | Top Inhibition % [3] [%] | Top Inhibition % [4] [%] | Top Inhibition % [5] [%] | Top Inhibition % [6] [%] | Top Inhibition % [7] [%] | number of colonies formed in soft agar [8] | rank of potency in soft agar assay ([8]; order K103, K102, K101A, K101E) | potency in proliferation inhibition relative to prostratin [9] | inhibition at 0.1 µM [10] [%] | effect in combination with the PKC activator compounds in inhibiting the growth of A549 cells [11] | inhibition at 0.001 µM [10] [%]
CC(=O)OCC1=CC2C3C(C)(C)C3(OC(C)=O)CC(C)C2(O)C2C=C(C)C(=O)C2(O)C1 (stereo not drawn) [Compound K101E] | 38.87 | 85.8 | 35.6 | 26.8 | 31.7 | 32.25 | 25.4 | reduced the number of colonies formed by A549 cells in a dose-dependent manner | – | – | – | – | –
CCCCCCCCCCCCCC(=O)O[C@@H]1[C@@H](C)[C@@]2(O)[C@@H](C=C(CO)C[C@]3(O)C(=O)C(C)=C[C@@H]23)[C@@H]2C(C)(C)[C@]12OC(C)=O [Compound K103, 12-O-Tetradecanoylphorbol-13-acetate] | 44.46 | 86.8 | 27.9 | 15.5 | 20.9 | 32.75 | 18.7 | reduced the number of colonies formed by A549 cells in a dose-dependent manner | Most potent | more potent | – | – | –
CC(=O)O[C@@]12C[C@@H](C)[C@@]3(O)[C@@H](C=C(CO)C[C@]4(O)C(=O)C(C)=C[C@@H]34)[C@@H]1C2(C)C [Compound K101A, 12-deoxyphorbol 13-acetate] | 40.11 | 83.6 | 27.7 | 10.1 | 12.8 | 32.39 | 7.1 | reduced the number of colonies formed by A549 cells in a dose-dependent manner | – | – | < 10 | – | –
CC(=O)O[C@H]1C(=O)[C@@]2(C)[C@H]([C@H](OC(=O)c3ccccc3)[C@]3(O)C[C@H](OC(=O)[C@H](O)[C@@H](NC(=O)c4ccccc4)c4ccccc4)C(C)=C1C3(C)C)[C@]1(OC(C)=O)CO[C@@H]1C[C@@H]2O [Paclitaxel] | 91.93 | 97.4 | 80.6 | 96.5 | 93.8 | 98.98 | 81.0 | – | – | – | – | insignificant synergism or antagonism | –
C/C=C(/C)C(=O)O[C@H]1C(C)=C[C@]23C(=O)[C@@H](C=C(CO)[C@@H](O)[C@]12O)[C@H]1[C@@H](C[C@H]3C)C1(C)C [Compound K102, ingenol-3-angelate] | 44.13 | 86.0 | 30.8 | 25.5 | 17.3 | 27.06 | 20.1 | reduced the number of colonies formed by A549 cells in a dose-dependent manner | – | more potent | – | – | < 10
